From patent US20180207138A1, “METHODS FOR THE TREATMENT OF TREMORS BY POSITIVE MODULATION OF SK CHANNELS” (Cadent Therapeutics, Inc., priority 2017, published 2018)
Where two headings read alike, the source gives them in different places.

Experiments:
[1] = system: Harmaline-induced tremor; conditions: for inhibition of tremors (tremor events): FIG. 1; for Minimally Efficacious Dose: oral dosing 30 min before 10 mg/Kg ip Harmaline, tremor events over 60 min
Protocol: The structure of each of these compounds is duplicated below.
Animals were administered with either Vehicle or compound (orally) 30 minutes prior to Harmaline administration (t=−30 minutes). Animals were then dosed ip with 10 mg/Kg Harmaline HCl in isotonic saline (t=0 minutes). Immediately following Harmaline administration, animals were monitored for 1 hour (t=0-60 minutes) to quantify the number of tremor events.
Tremor events were quantified via automated capture of forelimb tremor activity and confirmed by visual observation. Prior to testing, animals were fitted with a small metal band (0.5 g) on the right forepaw and acclimated to the testing apparatus for one hour. Immediately following Harmaline administration, animals were placed in the testing apparatus and tremor events were quantified for 60 minutes. A tremor event signal was generated when the transmitter band on the animal moved within the electromagnetic field generated by a loop antenna within the testing apparatus. Outputs from the amplifier were digitized at a sampling rate of 1,000 Hz and the signal was processed and analyzed using LabView software (National Instruments). […] Data were analyzed in one-minute bins over the course of the test and presented as the sum of tremor events over the entire 60 minute test.

[2] = male, Sprague Dawley, rat, in vivo; for Measured Brain Concentration: po
Protocol: (§1) It is calculated as follows: CFB=CMB×BFF, where CMB is the concentration of compound measured by mass spectrometry from brains harvested immediately following tremor recording (Table 1, “Measured Brain Concentration”). CFB is the amount of free compound not complexed with protein and therefore free to interact with the SK2 channel (Table 1, “Calculated Free Brain Concentration”). BFF is average free fraction of compound as measured by equilibrium dialysis (Table 1, “Brain Free Fraction”). This was performed by using 1 μM of compound with 10% brain tissue homogenate in phosphate buffer saline. Incubation time was 5 hours at 37° C. and detection was by LC-MS/MS. Reference compound was carbazepine. Free drug in brain available to interact with SK2 channels (CFB) is arrived at by multiplying the measured total brain level (CMB) by the average free fraction (BFF).

[3] = in vitro; conditions: brain homogenate
Protocol: as §1

[4] = system: harmaline-induced tremor; conditions: for tremor, power spectrum in 10-14 Hz band: 5 mg/kg ip harmaline, 30 minutes; for percent Motion Power (% MP): FIG. 3
Protocol: Whole body tremor was measured by a San Diego Instruments Tremor Monitor (San Diego, Calif., USA). […] Tremor was measured for 30 minutes following harmaline administration, and data were analyzed by fast Fourier transform and reported as a frequency power spectrum. […] Data were further analyzed by calculating the percent Motion Power (% MP), defined as the power in the 9-13 Hz band divided by the total power across the spectrum (0-30 Hz) multiplied by 100.

| Calculated Free Brain Concentration [2] [µM] | Measured Brain Concentration [2] [µM] | fraction unbound at 5 h, 1 μM [3] | Structure (SMILES) | inhibition of tremors (tremor events) ([1]; 60 mg/Kg orally) | Minimally Efficacious Dose [1] [mg/kg] | inhibition of tremors (tremor events) ([1]; 30 mg/Kg orally) | tremor, power spectrum in 10-14 Hz band ([4]; 3 mg/kg orally) | percent Motion Power (% MP) ([4]; 3 mg/kg orally, n=8, P<0.01 vs harmaline+vehicle) | tremor, power spectrum in 10-14 Hz band ([4]; 10 mg/kg orally) | percent Motion Power (% MP) ([4]; 10 mg/kg orally, n=16, P<0.05 vs harmaline+vehicle) | tremor, power spectrum in 10-14 Hz band ([4]; 30 mg/kg orally) | percent Motion Power (% MP) ([4]; 30 mg/kg orally, n=13, P<0.05 vs harmaline+vehicle) |
| --- | --- | --- | --- | --- | --- | --- | --- | --- | --- | --- | --- | --- |
| 0.15 | 3.1 | 0.048 | Cc1cc(C)n(-c2nc(NC3CCC(F)(F)CC3)cc(N3CCOCC3)n2)n1 [Compound 1] | significant inhibition of tremors | 60 |  |  |  |  |  |  |  |
| 0.08 | 1.3 |  | Cc1ccn(-c2nc(NC3CCC(F)(F)CC3)cc(N3CCOCC3)n2)n1 [Compound 2] |  | 30 | significant inhibition of tremors | significantly reduced tremor | significantly reduced harmaline-induced tremor | significantly reduced tremor | significantly reduced harmaline-induced tremor | significantly reduced tremor | significantly reduced harmaline-induced tremor |
